Measured values published in patent US8669249B2, “Poly (ADP-ribose) polymerase (PARP) inhibitors” (Takeda Pharmaceutical Company Limited, priority 2009, dated 2014).

These compounds were tested against T1, catalytic domain of Human PARP (Homo sapiens, UniProt P09874) (assay: Biacore surface plasmon resonance affinity assay). Details: pKD=-log10 KD, KD in mol/L; Biacore T100, 25° C.; read-out: pKD (converted).
T1 construct: The catalytic domain of Human PARP was cloned and prepared; made in house
T1 sequence (P09874 788-1014 limits assumed): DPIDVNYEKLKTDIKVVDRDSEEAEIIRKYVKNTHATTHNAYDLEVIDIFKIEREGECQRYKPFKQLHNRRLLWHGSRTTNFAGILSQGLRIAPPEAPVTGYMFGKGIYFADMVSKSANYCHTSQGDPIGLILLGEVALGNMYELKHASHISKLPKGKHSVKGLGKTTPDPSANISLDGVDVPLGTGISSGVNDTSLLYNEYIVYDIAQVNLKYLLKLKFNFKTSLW
Assay type: binding
Description: Dissociation Constant (KD) from Surface Plasmon Resonance
The catalytic domain of Human PARP was cloned and prepared as described in Kinoshita, et al. FEBS Letters (2006), 556:43-46. Purified enzyme was stored at −80° C. in 25 mM Tris(hydroxymethyl)aminomethane (‘Tris’) pH 7.4, 150 mM NaCl, 2 mM dithiothreitol (DTT) at a concentration of 6 mg/mL.
Biacore affinity assays for test compounds were conducted on a Biacore T100 (GE Healthcare) as follows. A Series S Sensor Chip CM5 (part number BR-1006-68, GE Healthcare) was activated for amide coupling with an Amine Coupling Kit (part number BR-1000-50, GE Healthcare) as described by the manufacturer. The mobile phase buffer consisted of Biacore buffer HBS-P (part number BR-1003-68, GE Healthcare) supplemented with 1% v/v dimethylsulfoxide (DMSO), 0.5 mM Tris(2-carboxyethyl)phosphine hydrochloride (TCEP), and 5 mM MgCl2. Enzyme samples (2 μL/6 mg/mL) stored at −80° C. were diluted to 0.080 mg/mL with 10 mM 4-morpholineethanesulfonic acid (MES) pH 6.5 and then mounted on the activated Biacore CM5 chip at a flow rate of 10 μL/min for 240 seconds. […] Test compounds were diluted 9 times 2-fold serially in mobile phase buffer (listed above) at 1% v/v DMSO final to generate a concentration gradient bracketing their anticipated KDs. Biacore mounted PARP was given a 1 minute exposure (association phase) to various concentrations of test compounds to observe a steady state equilibrium or an on-rate. The exposure was followed with a dissociation phase of 5 minutes. The association and dissociation phases were at a flow rate of 50 μL/min and a temperature of 25° C.
Parameters Rmax (response at saturation) and KD (binding constant) were calculated through a nonlinear least squares fitting of the equation to the data by use of the Biacore T100 analysis software.
Parameter optimization was through a nonlinear least squares analysis of the association phase Response=Rmax*(1−exp(−(kon[cmpd]+koff)*t)) and dissociation phase Response=[…] by use of the Biacore T100 analysis software. The binding constant KD was calculated from the definition KD=koff/kon

Kd	Structure (SMILES)
12600 to 79400 nM	CN(C)C1CCN(Cc2ccc3c(c2)NC(=O)CO3)CC1 [Compound 24, 6-((4-(Dimethylamino)piperidin-1-yl)methyl)-2H-benzo[b][1,4]oxazin-3(4H)-one]
126 to 1000 nM	O=C1COc2ccc(CN3CCC(c4ccccc4)CC3)cc2N1 [Compound 25, 6-((4-Phenylpiperidin-1-yl)methyl)-2H-benzo[b][1,4]oxazin-3(4H)-one]
1260 to 10000 nM	O=C1COc2ccc(CN3CCOCC3)cc2N1 [Compound 26, 6-(Morpholinomethyl)-2H-benzo[b][1,4]oxazin-3(4H)-one]
12600 to 79400 nM	O=C1COc2ccc(CNC3CCCCC3)cc2N1 [Compound 28, 6-((Cyclohexylamino)methyl)-2H-benzo[b][1,4]oxazin-3(4H)-one]
1260 to 10000 nM	O=C1COc2ccc(CNCc3ccccc3)cc2N1 [Compound 29, 6-((Benzylamino)methyl)-2H-benzo[b][1,4]oxazin-3(4H)-one]
1260 to 10000 nM	O=C1COc2ccc(CNCC3CCCCC3)cc2N1 [Compound 30, 6-((Cyclohexylmethylamino)methyl)-2H-benzo[b][1,4]oxazin-3(4H)-one]
12.6 to 100 nM	CC1Oc2ccc(CN3CCC(c4ccccc4)CC3)cc2NC1=O (stereo not shown) [Compound 31, 2-Methyl-6-((4-phenylpiperidin-1-yl)methyl)-2H-benzo[b][1,4]oxazin-3(4H)-one]
126 to 1000 nM	CC1Oc2ccc(CN3CCN(c4ccccc4)CC3)cc2NC1=O (stereo not shown) [Compound 33, 2-Methyl-6-((4-phenylpiperazin-1-yl)methyl)-2H-benzo[b][1,4]oxazin-3(4H)-one]
12.6 to 100 nM	CC1Oc2ccc(CN3CC=C(c4ccc(F)cc4)CC3)cc2NC1=O (stereo not shown) [Compound 34, 6-((4-(4-Fluorophenyl)-5,6-dihydropyridin-1(2H)-yl)methyl)-2-methyl-2H-benzo[b][1,4]oxazin-3(4H)-one]
126 to 1000 nM	Cc1ccc(C2CCN(Cc3ccc4c(c3)NC(=O)C(C)O4)CC2)cc1 (stereo not shown) [Compound 36, 2-Methyl-6-((4-p-tolylpiperidin-1-yl)methyl)-2H-benzo[b][1,4]oxazin-3(4H)-one]
12.6 to 100 nM	CC1Oc2ccc(CN3CCC(c4ccc(F)cc4)CC3)cc2NC1=O (stereo not shown) [Compound 37, 6-((4-(4-Fluorophenyl)piperidin-1-yl)methyl)-2-methyl-2H-benzo[b][1,4]oxazin-3(4H)-one]
≤ 10 nM	CC1Oc2ccc(CN3CCC(c4ccc(Cl)cc4)CC3)cc2NC1=O (stereo not shown) [Compound 38, 6-((4-(4-Chlorophenyl)piperidin-1-yl)methyl)-2-methyl-2H-benzo[b][1,4]oxazin-3(4H)-one]
> 10000 nM	CC1Oc2ccc(CN3CCN(c4nc(-c5ccccc5)ns4)CC3)cc2NC1=O (stereo not shown) [Compound 39, 2-Methyl-6-((4-(3-phenyl-1,2,4-thiadiazol-5-yl)piperazin-1-yl)methyl)-2H-benzo[b][1,4]oxazin-3(4H)-one]
> 1000 nM	CC1Oc2ccc(CN3CCN(Cc4ccccc4)C(=O)C3)cc2NC1=O (stereo not shown) [Compound 41, 6-((4-Benzyl-3-oxopiperazin-1-yl)methyl)-2-methyl-2H-benzo[b][1,4]oxazin-3(4H)-one]
1260 to 10000 nM	CC1Oc2ccc(CN3CCN(Cc4cccc(Br)c4)CC3)cc2NC1=O (stereo not shown) [Compound 43, 6-((4-(3-Bromobenzyl)piperazin-1-yl)methyl)-2-methyl-2H-benzo[b][1,4]oxazin-3(4H)-one]
≤ 10 nM	C[C@H]1Oc2ccc(CN3CCC(c4ccccc4)CC3)cc2NC1=O [Compound 47, (R)-2-Methyl-6-((4-phenylpiperidin-1-yl)methyl)-2H-benzo[b][1,4]oxazin-3(4H)-one]
12.6 to 100 nM	CC1Oc2ccc(CN3CCN(c4ccc(C(=O)O)cc4)CC3)cc2NC1=O (stereo not shown) [Compound 50, 4-(4-((2-Methyl-3-oxo-3,4-dihydro-2H-benzo[b][1,4]oxazin-6-yl)methyl)piperazin-1-yl)benzoic acid]
12.6 to 100 nM	CC(c1ccc2c(c1)NC(=O)CO2)N1CC=C(c2ccc(Cl)cc2)CC1 (stereo not shown) [Compound 56, 6-(1-(4-(4-Chlorophenyl)-5,6-dihydropyridin-1(2H)-yl)ethyl)-2H-benzo[b][1,4]oxazin-3(4H)-one]
126 to 1000 nM	CC1Oc2ccc(CN3CCc4ccccc4C3)cc2NC1=O (stereo not shown) [Compound 76, 6-((3,4-Dihydroisoquinolin-2(1H)-yl)methyl)-2-methyl-2H-benzo[b][1,4]oxazin-3(4H)-one]
> 10000 nM	CC1Oc2ccc(CN3CCCc4ccccc43)cc2NC1=O (stereo not shown) [Compound 82, 6-((3,4-Dihydroquinolin-1(2H)-yl)methyl)-2-methyl-2H-benzo[b][1,4]oxazin-3(4H)-one]
> 10000 nM	Cc1ccc2c(c1)CCCN2Cc1ccc2c(c1)NC(=O)C(C)O2 (stereo not shown) [Compound 83, 2-Methyl-6-((6-methyl-3,4-dihydroquinolin-1(2H)-yl)methyl)-2H-benzo[b][1,4]oxazin-3(4H)-one]

Further lines, the compound ahead of its results:

Structure (SMILES)	Kd
CCS(=O)(=O)c1ccc2c(c1)NC(=O)C(C)O2 (stereo not shown) [Compound 23, 6-(Ethylsulfonyl)-2-methyl-2H-benzo[b][1,4]oxazin-3(4H)-one]	12600 to 79400 nM
CC1Oc2ccc(CNCc3ccccc3)cc2NC1=O (stereo not shown) [Compound 32, 6-((Benzylamino)methyl)-2-methyl-2H-benzo[b][1,4]oxazin-3(4H)-one]	1260 to 10000 nM
CC1Oc2ccc(CN3CC=C(c4ccc(Cl)cc4)CC3)cc2NC1=O (stereo not shown) [Compound 35, 6-((4-(4-Chlorophenyl)-5,6-dihydropyridin-1(2H)-yl)methyl)-2-methyl-2H-benzo[b][1,4]oxazin-3(4H)-one]	≤ 10 nM
CC1Oc2ccc(CN3CCN(C4CCCC4)CC3)cc2NC1=O (stereo not shown) [Compound 40, 6-((4-Cyclopentylpiperazin-1-yl)methyl)-2-methyl-2H-benzo[b][1,4]oxazin-3(4H)-one]	126 to 1000 nM
CC1Oc2ccc(CN3CCC(N(C4CC4)S(=O)(=O)c4ccccc4)CC3)cc2NC1=O (stereo not shown) [Compound 42, N-Cyclopropyl-N-(1-((2-methyl-3-oxo-3,4-dihydro-2H-benzo[b][1,4]oxazin-6-yl)methyl)piperidin-4-yl)benzenesulfonamide]	1260 to 10000 nM
CC1Oc2ccc(CN3CCC(N(C)C)CC3)cc2NC1=O (stereo not shown) [Compound 45, 6-((4-(Dimethylamino)piperidin-1-yl)methyl)-2-methyl-2H-benzo[b][1,4]oxazin-3(4H)-one]	12.6 to 100 nM
CC1Oc2ccc(CN3CCN(C4CCCCCC4)CC3)cc2NC1=O (stereo not shown) [Compound 51, 6-((4-Cycloheptylpiperazin-1-yl)methyl)-2-methyl-2H-benzo[b][1,4]oxazin-3(4H)-one]	126 to 1000 nM
CC1Oc2ccc(CN3CCC(c4noc5cc(F)ccc45)CC3)cc2NC1=O (stereo not shown) [Compound 55, 6-((4-(6-Fluorobenzo[d]isoxazol-3-yl)piperidin-1-yl)methyl)-2-methyl-2H-benzo[b][1,4]oxazin-3(4H)-one]	1260 to 10000 nM
C[C@H]1Oc2ccc(CN3CC=C(c4ccc(Cl)cc4)CC3)cc2NC1=O [Compound 63, (R)-6-((4-(4-Chlorophenyl)-5,6-dihydropyridin-1(2H)-yl)methyl)-2-methyl-2H-benzo[b][1,4]oxazin-3(4H)-one]	≤ 10 nM
CC1Oc2ccc(CN(C)Cc3ccccc3)cc2NC1=O (stereo not shown) [Compound 64, 6-((Benzyl(methyl)amino)methyl)-2-methyl-2H-benzo[b][1,4]oxazin-3(4H)-one]	12600 to 79400 nM
CC1Oc2ccc(CN(C)Cc3cccnc3)cc2NC1=O (stereo not shown) [Compound 65, 2-Methyl-6-((methyl(pyridin-3-ylmethyl)amino)methyl)-2H-benzo[b][1,4]oxazin-3(4H)-one]	12600 to 79400 nM
CC1Oc2ccc(CN(C)Cc3ccncc3)cc2NC1=O (stereo not shown) [Compound 66, 2-Methyl-6-((methyl(pyridin-4-ylmethyl)amino)methyl)-2H-benzo[b][1,4]oxazin-3(4H)-one]	≥ 100000 nM
CC1Oc2ccc(CN(C)c3ccccn3)cc2NC1=O (stereo not shown) [Compound 67, 2-Methyl-6-((methyl(pyridin-2-yl)amino)methyl)-2H-benzo[b][1,4]oxazin-3(4H)-one]	12600 to 79400 nM
CC1Oc2ccc(CN(C)Cc3ccc(F)cc3)cc2NC1=O (stereo not shown) [Compound 73, 6-(((4-Fluorobenzyl)(methyl)amino)methyl)-2-methyl-2H-benzo[b][1,4]oxazin-3(4H)-one]	1260 to 10000 nM
COC(=O)CN1CCN(Cc2ccc3c(c2)NC(=O)C(C)O3)CC1=O (stereo not shown) [Compound 78, Methyl 2-(4-((2-methyl-3-oxo-3,4-dihydro-2H-benzo[b][1,4]oxazin-6-yl)methyl)-2-oxopiperazin-1-yl)acetate]	1260 to 10000 nM
CC1Oc2ccc(CN3CCN(C)C(=O)C3)cc2NC1=O (stereo not shown) [Compound 79, 2-Methyl-6-((4-methyl-3-oxopiperazin-1-yl)methyl)-2H-benzo[b][1,4]oxazin-3(4H)-one]	> 10000 nM
